# Assay results as given in US11623919B2, “Heterocyclic P2X7 antagonists” (AXXAM S.P.A., priority 2017, dated 2023).
# Columns and labels:
# Experiment in all cases: Screen Quest Fluo-8 No Wash Calcium Assay (Bz-ATP evoked Ca2+ influx, FLIPR)
# Type in all cases: cell-based
# P2X7 receptor [1] = biological target: T1, P2X7 receptor (Homo sapiens, UniProt Q99572); design: hP2X7 (IC50; nM); other: hP2X7; HEK-293 cells stably transfected with P2X7 receptor, Bz-ATP at EC80, Fluo-8 NW; potency; conditions: hP2X7; HEK-293 cells stably transfected with P2X7 receptor, Bz-ATP at EC80, Fluo-8 NW; potency ranges A-D
# T1 sequence (Q99572 1-595): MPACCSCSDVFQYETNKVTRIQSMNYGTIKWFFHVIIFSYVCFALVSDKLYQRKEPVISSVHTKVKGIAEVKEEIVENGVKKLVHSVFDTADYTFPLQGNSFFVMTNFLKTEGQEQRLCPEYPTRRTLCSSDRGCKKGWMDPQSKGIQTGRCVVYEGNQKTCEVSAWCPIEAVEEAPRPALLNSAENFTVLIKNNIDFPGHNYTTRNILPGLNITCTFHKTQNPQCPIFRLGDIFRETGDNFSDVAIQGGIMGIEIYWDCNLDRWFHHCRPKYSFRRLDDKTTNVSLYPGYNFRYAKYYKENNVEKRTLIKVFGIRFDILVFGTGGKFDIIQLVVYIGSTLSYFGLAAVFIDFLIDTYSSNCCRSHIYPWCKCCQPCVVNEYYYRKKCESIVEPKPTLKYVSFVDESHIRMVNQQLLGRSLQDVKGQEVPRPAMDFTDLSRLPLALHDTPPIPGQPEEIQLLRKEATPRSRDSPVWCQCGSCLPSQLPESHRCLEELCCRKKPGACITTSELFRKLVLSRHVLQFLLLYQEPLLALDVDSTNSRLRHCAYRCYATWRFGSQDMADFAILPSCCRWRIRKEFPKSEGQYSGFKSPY
# Procedure: (§1) Extracellular binding of Bz-ATP to P2X7 receptor opens the channel and allows Ca2+ influx into the cells. […] Once inside the cell, the lipophilic blocking groups of Fluo-8 are cleaved by non-specific cell esterases, resulting in a negatively-charged fluorescent dye that stays inside cells. Its fluorescence increases upon binding to calcium.
# (§2) HEK-293 cells stably transfected with P2X7 receptor were seeded overnight in growth medium at 10,000 to 20,000 cell/well in 384-well plate. 24 hours later, the medium was removed and the cells were pre-loaded at RT for 1 hour with 20 μL/w of Fluo-8 NW. Then 10 μL/w of tests compounds and reference antagonist A438079 at 3×-concentration were injected with the […] and the kinetic response over a period of five minutes was monitored. A second injection of 15 μL/w of 3× reference activator (Bz-ATP at EC80) was performed with the […] and the signal of the emitted fluorescence was recorded for additional three minutes. All the experiment was carried out in a Low Divalent Cation Assay Buffer (0.3 mM Ca^2+ and 0 mM Mg^2+). The effect of the test compounds was measured as percent inhibition vs the reference antagonist and IC50 values were calculated accordingly.
# P2X7 receptor [2] = biological target: T2, P2X7 receptor (Mus musculus, UniProt Q9Z1M0); conditions: mP2X7; HEK-293 cells stably transfected with P2X7 receptor, Bz-ATP at EC80, Fluo-8 NW; potency ranges A-D
# T2 construct: mP2X7 (IC50; nM); other: mP2X7; HEK-293 cells stably transfected with P2X7 receptor, Bz-ATP at EC80, Fluo-8 NW; potency
# T2 sequence (Q9Z1M0 1-595): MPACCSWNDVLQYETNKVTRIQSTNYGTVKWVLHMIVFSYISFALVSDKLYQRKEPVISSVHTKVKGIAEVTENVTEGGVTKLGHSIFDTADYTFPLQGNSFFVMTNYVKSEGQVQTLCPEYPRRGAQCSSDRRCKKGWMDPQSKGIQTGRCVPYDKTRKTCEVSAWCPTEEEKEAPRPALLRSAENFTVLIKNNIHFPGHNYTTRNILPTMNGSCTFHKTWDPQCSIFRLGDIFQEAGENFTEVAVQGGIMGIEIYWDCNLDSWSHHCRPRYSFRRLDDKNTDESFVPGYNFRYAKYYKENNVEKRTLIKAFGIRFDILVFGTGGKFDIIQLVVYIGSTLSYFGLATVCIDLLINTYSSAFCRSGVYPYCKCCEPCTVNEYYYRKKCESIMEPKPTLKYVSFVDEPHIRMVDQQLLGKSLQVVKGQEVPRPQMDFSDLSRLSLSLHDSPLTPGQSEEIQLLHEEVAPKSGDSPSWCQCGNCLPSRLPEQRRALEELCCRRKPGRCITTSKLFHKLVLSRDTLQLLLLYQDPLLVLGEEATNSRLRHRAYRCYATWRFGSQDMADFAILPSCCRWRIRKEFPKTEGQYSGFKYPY
# Procedure: as §1, §2
# P2X7 receptor [3] = biological target: T3, P2X7 receptor (Rattus norvegicus, UniProt Q64663); conditions: rP2X7; HEK-293 cells stably transfected with P2X7 receptor, Bz-ATP at EC80, Fluo-8 NW; potency ranges A-D
# T3 construct: rP2X7 (IC50; nM); other: rP2X7; HEK-293 cells stably transfected with P2X7 receptor, Bz-ATP at EC80, Fluo-8 NW; potency
# T3 sequence (Q64663 1-595): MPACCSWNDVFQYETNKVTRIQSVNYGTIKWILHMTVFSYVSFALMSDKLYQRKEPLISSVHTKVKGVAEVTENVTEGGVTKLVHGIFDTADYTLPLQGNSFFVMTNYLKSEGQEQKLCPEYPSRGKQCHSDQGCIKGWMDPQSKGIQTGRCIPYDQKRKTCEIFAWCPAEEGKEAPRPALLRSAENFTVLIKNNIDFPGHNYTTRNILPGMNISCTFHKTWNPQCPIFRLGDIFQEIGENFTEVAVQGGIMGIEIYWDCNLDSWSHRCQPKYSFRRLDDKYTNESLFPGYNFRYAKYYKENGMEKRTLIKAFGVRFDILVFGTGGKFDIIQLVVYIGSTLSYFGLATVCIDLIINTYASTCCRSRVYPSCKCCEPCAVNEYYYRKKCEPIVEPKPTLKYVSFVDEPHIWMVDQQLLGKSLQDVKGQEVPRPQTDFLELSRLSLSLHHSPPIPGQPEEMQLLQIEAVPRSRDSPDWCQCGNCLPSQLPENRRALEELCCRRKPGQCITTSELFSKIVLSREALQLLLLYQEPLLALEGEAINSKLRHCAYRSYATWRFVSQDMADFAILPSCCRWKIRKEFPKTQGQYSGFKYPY
# Procedure: as §1, §2
Compound,IC50 (P2X7 receptor [1]) [nM],IC50 (P2X7 receptor [2]) [nM],IC50 (P2X7 receptor [3]) [nM]
"O=c1onc(CC2CCC(F)(F)CC2)n1Cc1ncc(F)cn1 [Example 190, 3-[(4,4-difluorocyclohexyl)methyl]-4-[(5-fluoropyrimidin-2-yl)methyl]-4,5-dihydro-1,2,4-oxadiazol-5-one]",> 10000,> 10000,> 10000
"O=c1onc(CN2CCC(F)(F)CC2)n1Cc1c(F)cccc1Cl [Example 220, 4-[(2-chloro-6-fluorophenyl)methyl]-3-[(4,4-difluoropiperidin-1-yl)methyl]-4,5-dihydro-1,2,4-oxadiazol-5-one]",< 200,200 to 1000,< 200
"Cc1nc(Cn2c(CC3CCC(F)(F)CC3)noc2=O)no1 [Example 196, 3-[(4,4-difluorocyclohexyl)methyl]-4-[(5-methyl-1,2,4-oxadiazol-3-yl)methyl]-1,2,4-oxadiazol-5(4H)-one]",> 10000,> 10000,> 10000
"O=c1onc(CC2CCC(F)(F)CC2)n1Cn1ccc(C(F)(F)F)n1 [Example 198, 3-[(4,4-difluorocyclohexyl)methyl]-4-{[3-(trifluoromethyl)-1H-pyrazol-1-yl]methyl}-1,2,4-oxadiazol-5(4H)-one]",> 10000,1000 to 10000,1000 to 10000
"O=c1onc(CN2CCCC(F)(F)C2)n1Cc1c(F)cccc1Cl [Example 224, 4-[(2-chloro-6-fluorophenyl)methyl]-3-[(3,3-difluoropiperidin-1-yl)methyl]-4,5-dihydro-1,2,4-oxadiazol-5-one]",200 to 1000,200 to 1000,200 to 1000
"COc1cc(Cn2c(Cc3ccc(F)cc3)noc2=O)cc(OC)c1 [Example 4, 4-[(3,5-dimethoxyphenyl)methyl]-3-[(4-fluorophenyl)methyl]-4,5-dihydro-1,2,4-oxadiazol-5-one]",> 10000,> 10000,> 10000
"CCCn1c(Cc2c(F)cccc2Cl)noc1=O [Example 176, 3-[(2-chloro-6-fluorophenyl)methyl]-4-propyl-4,5-dihydro-1,2,4-oxadiazol-5-one]",> 10000,> 10000,> 10000
"O=c1onc(Cc2ccccc2F)n1CC1CCC(F)(F)CC1 [Example 150, 4-[(4,4-difluorocyclohexyl)methyl]-3-[(2-fluorophenyl)methyl]-4,5-dihydro-1,2,4-oxadiazol-5-one]",200 to 1000,200 to 1000,< 200
"O=c1onc(CN2CCOc3ccccc32)n1CC1CCC(F)(F)CC1 [Example 231, 4-[(4,4-difluorocyclohexyl)methyl]-3-(3,4-dihydro-2H-1,4-benzoxazin-4-ylmethyl)-4,5-dihydro-1,2,4-oxadiazol-5-one]",< 200,< 200,< 200
"O=c1onc(Cc2c(F)cccc2Cl)n1Cc1cncnc1 [Example 38, 3-[(2-chloro-6-fluorophenyl)methyl]-4-(pyrimidin-5-ylmethyl)-4,5-dihydro-1,2,4-oxadiazol-5-one]",> 10000,> 10000,> 10000
"O=c1onc(CC2CCC(F)(F)CC2)n1Cc1nccs1 [Example 191, 3-[(4,4-difluorocyclohexyl)methyl]-4-(1,3-thiazol-2-ylmethyl)-4,5-dihydro-1,2,4-oxadiazol-5-one]",1000 to 10000,> 10000,200 to 1000
"CC(C)(c1c(F)cccc1Cl)c1noc(=O)n1CC1CCCCC1 [Example 121, 3-[2-(2-chloro-6-fluorophenyl)propan-2-yl]-4-(cyclohexylmethyl)-4,5-dihydro-1,2,4-oxadiazol-5-one]",> 10000,> 10000,> 10000

# Second part, the molecule after the results:
IC50 (P2X7 receptor [1]) [nM],IC50 (P2X7 receptor [2]) [nM],IC50 (P2X7 receptor [3]) [nM],Compound
> 10000,> 10000,> 10000,"O=c1onc(Cc2cccc(C(F)(F)F)c2Cl)n1Cc1ccc(F)cc1 [Example 72, 3-{[2-chloro-3-(trifluoromethyl)phenyl]methyl}-4-[(4-fluorophenyl)methyl]-4,5-dihydro-1,2,4-oxadiazol-5-one]"
1000 to 10000,1000 to 10000,> 10000,"O=c1onc(Cc2c(F)cccc2Cl)n1Cc1ccc(C(F)(F)F)nc1 [Example 37, 3-[(2-chloro-6-fluorophenyl)methyl]-4-{[6-(trifluoromethyl)pyridin-3-yl]methyl}-4,5-dihydro-1,2,4-oxadiazol-5-one]"
1000 to 10000,> 10000,> 10000,"Cc1nc(C(F)(F)F)ccc1Cn1c(Cc2c(F)cccc2Cl)noc1=O [Example 64, 3-[(2-chloro-6-fluorophenyl)methyl]-4-{[2-methyl-6-(trifluoromethyl)pyridin-3-yl]methyl}-4,5-dihydro-1,2,4-oxadiazol-5-one]"
> 10000,> 10000,> 10000,"O=c1onc(Cc2c(F)cccc2Cl)n1Cc1ccccn1 [Example 62, 3-[(2-chloro-6-fluorophenyl)methyl]-4-(pyridin-2-ylmethyl)-4,5-dihydro-1,2,4-oxadiazol-5-one]"
200 to 1000,1000 to 10000,200 to 1000,"O=c1snc(Cc2c(F)cccc2Cl)n1Cc1ccc(F)cc1 [Example 139, 3-[(2-chloro-6-fluorophenyl)methyl]-4-[(4-fluorophenyl)methyl]-4,5-dihydro-1,2,4-thiadiazol-5-one]"
1000 to 10000,> 10000,> 10000,"O=c1onc(Cc2ccc(F)cc2)n1Cc1ccc(F)cc1 [Example 54, bis[(4-fluorophenyl)methyl]-4,5-dihydro-1,2,4-oxadiazol-5-one]"
1000 to 10000,1000 to 10000,1000 to 10000,"O=c1onc(Cc2cccc(F)c2)n1Cc1ccc(F)cc1 [Example 107, 3-[(3-fluorophenyl)methyl]-4-[(4-fluorophenyl)methyl]-4,5-dihydro-1,2,4-oxadiazol-5-one]"
